≈ marks a conversion by molar mass, not a printed value. Like-named read-outs stand apart in the source and are kept apart here.
Key:
S. aureus ATCC 29213 = assay: Antibacterial screening, broth microdilution MIC; assay type: cell-based; settings: Staphylococcus aureus, ATCC29213; ATCC 29213, 24 h at 37 °C; read-out: MIC S. aureus
VRE 368 = assay: Antibacterial screening, broth microdilution MIC; assay type: cell-based, vancomycin-resistant E. faecalis; settings: Enterococcus, read-out: MIC VRE 368
MRSA 63718 = assay: Antibacterial screening, broth microdilution MIC; assay type: cell-based, methicillin-resistant S. aureus; settings: Staphylococcus aureus, read-out: MIC MRSA 63718
E. coli ATCC 25922 = assay: Antibacterial screening, broth microdilution MIC; assay type: cell-based; settings: Escherichia coli, ATCC25922; ATCC 25922, 24 h at 37 °C
VRE 725B = assay: Antibacterial screening, broth microdilution MIC; assay type: cell-based, vancomycin-resistant E. faecalis; settings: Enterococcus, vanA isolate, 24 h at 37 °C, read-out: MIC VRE 725B
in vitro = settings: human
Experimental: Cytotoxicity of the compounds was determined using an LDH assay kit (Roche Diagnostics, Mannheim, Germany) as described previously. Human monocytic leukemia THP-1 cells (European Collection of Cell Cultures, Salisbury, UK) were exposed for 24 h at 37 °C to various compound concentrations ranging from 0.37 to 30 μM in RPMI 1640 medium. For LDH assays, cells were seeded into 96-well plates (5×10^4 cells/well in 100 μL culture medium) in triplicate in serum-free RPMI 1640 medium and measurements were taken 24 h after the treatment with the compounds. The maximum concentration of DMSO (Sigma) in the assays never exceeded 0.1 %. […] The median lethal dose values, LC50, were deduced through the production of a dose-response curve. All data from three independent experiments were evaluated using GraphPad Prism 5.00 software (GraphPadSoftware, San Diego, CA, USA).

MRSA SA 3202 = assay: Antibacterial screening, broth microdilution MIC; assay type: cell-based, methicillin-resistant S. aureus; settings: Staphylococcus aureus, clinical isolate, 24 h at 37 °C, read-out: MIC MRSA SA 3202
[1] = test system: Mycobacterium kansasii DSM 44162; assay: Antimycobacterial screening, broth dilution MIC; assay type: cell-based; settings: DSM44162, 336 h, read-out: MIC M. kansasii
[2] = test system: Mycobacterium tuberculosis ATCC 25177/H37Ra; assay: Antimycobacterial screening, broth dilution MIC (Alamar blue); assay type: cell-based; settings: 336 h, read-out: MIC M. tuberculosis
Experimental: The evaluation of in vitro antimycobacterial activity of the compounds was performed against Mycobacterium tuberculosis ATCC 25177/H37Ra, Mycobacterium kansasii DSM 44162 and Mycobacterium smegmatis ATCC 700084.
The broth dilution micro-method in Middlebrook 7H9 medium (Difco, Lawrence, KS, USA) supplemented with ADC Enrichment (Difco) was used to determine the minimum inhibitory concentration (MIC) as previously described. […] The final concentrations of the evaluated compounds, ranging from 256 to 0.125 μg mL^-1, were obtained by twofold serial dilution of the stock solution in a microtiter plate with a sterile medium. Bacterial inocula were prepared by transferring colonies from culture to sterile water. The plate was inoculated by tested microorganisms. The final concentration of bacterial cells was 1.5×10^6 for M. tuberculosis and 10^5 cells in a microtiter plate for other mycobacteria. Isoniazid and rifampicin (Sigma) were used as reference antimycobacterial drugs. Drug-free controls, sterility controls, and controls consisting of medium and DMSO alone were included. The plates were incubated for a defined time at an appropriate temperature (3 days at 37 °C for M. smegmatis, and 14 days at 37 °C for M. tuberculosis and M. kansasii). […] The MICs against M. tuberculosis were evaluated by Alamar blue (Oxoid). After incubation, 10 % of Alamar blue was added to each well, and the plate was incubated for 24 h. The MIC values were assessed as the lowest concentration of the tested compounds, which prevented changing blue resazurin to pink resorufin. The experiments were repeated three times. The minimum inhibitory concentrations (MICs) were defined as the lowest concentration of the compound at which no visible bacterial growth was observed. The MIC value is routinely and widely used in bacterial assays and is a standard detection limit according to the CLSI [60].

[3] = test system: Mycobacterium smegmatis ATCC 700084; assay: Antimycobacterial screening, broth dilution MIC; assay type: cell-based; settings: Mycolicibacterium smegmatis, ATCC700084, 72 h, read-out: MIC M. smegmatis
MRSA SA 630 = assay: Antibacterial screening, broth microdilution MIC; assay type: cell-based, methicillin-resistant S. aureus; settings: Staphylococcus aureus, read-out: MIC MRSA SA 630
[4] = test system: Enterococcus faecalis ATCC 29212; assay: Antibacterial screening, broth microdilution MIC; assay type: cell-based; settings: read-out: MIC E. faecalis
VRE 342B = assay: Antibacterial screening, broth microdilution MIC; assay type: cell-based, vancomycin-resistant E. faecalis; settings: Enterococcus, vanA isolate, 24 h at 37 °C, read-out: MIC VRE 342B
[5] = Lipophilicity determination by RP-HPLC (log k, log D); assay type: physicochemical; settings: for log D6.5: RP-HPLC C18, MeOH 72 % / acetate-buffered saline pH 6.5; for log D7.4: RP-HPLC C18, MeOH 72 % / acetate-buffered saline pH 7.4; for log k (logarithm of the capacity factor): RP-HPLC C18, MeOH 72 % / water 28 %
Excerpt: An HPLC system Agilent 1200 equipped with a DAD detector (Agilent, Santa Clara, CA, USA) was used. A chromatographic column Symmetry® C18 5 μm, 4.6×250 mm, part No. WAT054275 (Waters Corp., Milford, MA, USA) was used. The HPLC separation process was monitored and evaluated with EZChrom Elite software ver. 3.3.2 (Agilent). Isocratic elution by a mixture of MeOH p.a. (72 %) and H2O-HPLC Mili-Q grade (28 %) as a mobile phase was used for the determination of capacity factor k. Isocratic elution by a mixture of MeOH p.a. (72 %) and acetate-buffered saline (pH 7.4 and pH 6.5) (28 %) as a mobile phase was used for the determination of distribution coefficients expressed as D7.4 and D6.5. The total flow of the column was 1.0 mL min^-1, the injection volume was 20 μL, the column temperature was 40 °C, and the sample temperature was 10 °C. The detection wavelength of 210 nm was chosen. A KI methanolic solution was used to determine the dead times (tD). Retention times (tR) were measured in minutes. The capacity factors k were calculated according to the formula k = (tR–tD)/tD, where tR is the retention time of the solute, and tD is the dead time obtained using an unretained analyte. The distribution coefficients DpH were calculated according to the formula DpH = (tR–tD)/tD. Each experiment was repeated three times.
The capacity factor and distribution coefficients were measured by RP-HPLC on a C18 column with methanol as an organic modifier of the mobile phase. In addition to the experimental lipophilicities, predicted log P values were also calculated using ACD/Percepta, see Table 1. […] The values of σ(Ar) are found in a wide range from 0.01 to 1.36, so the compounds contain substituents with both electron-donating and slightly electron-withdrawing properties.

[6] = test system: human monocytic leukemia THP-1 cells; settings: cited from earlier work
[7] = clinical isolate, 24 h at 37 °C
[8] = H37Ra, 14 days at 37 °C, Alamar blue
[9] = ATCC29212, ATCC 29212, 24 h at 37 °C

SMILES	MIC (S. aureus ATCC 29213) [µM]	MIC (VRE 368; vanA isolate, 24 h at 37 °C) [µM]	MIC (MRSA 63718; [7]) [µM]	MIC (E. coli ATCC 25922) [µM]	MIC (VRE 725B) [µM]	CC50 at 24 h (in vitro) [µM]	MIC (MRSA SA 3202) [µM]	MIC ([1]; DSM 44162, 14 days at 37 °C) [µM]	MIC [2, 8] [µM]	MIC ([3]; ATCC 700084, 3 days at 37 °C) [µM]	MIC (MRSA SA 630; [7]) [µM]	MIC [4, 9] [µM]	MIC (VRE 342B) [µM]	log D6.5 [5]	log D7.4 [5]	log k (logarithm of the capacity factor) [5]	further results
O=C(Nc1ccc([N+](=O)[O-])c(C(F)(F)F)c1)c1c(O)ccc2ccccc12 [Compound 27, 2-Hydroxy-N-[4-nitro-3-(trifluoromethyl)phenyl]naphthalene-1-carboxamide]	0.332 (≈ 0.125 µg/mL)	21.3 (≈ 8.01 µg/mL)	1.33 (≈ 0.5 µg/mL)	680 (≈ 256 µg/mL)	42.5 (≈ 16 µg/mL)	> 30	1.33 (≈ 0.5 µg/mL)	21.3 (≈ 8.01 µg/mL)	85 (≈ 32 µg/mL)	21.3 (≈ 8.01 µg/mL)	1.33 (≈ 0.5 µg/mL)	21.3 (≈ 8.01 µg/mL)	42.5 (≈ 16 µg/mL)	0.3282	0.3220		
CC[C@@]1(O)C(=O)OCc2c1cc1n(c2=O)Cc2cc3ccccc3nc2-1 [CMP, camptothecin, reference compound]						0.16 ± 0.07											
COc1cc(NC(=O)c2c(O)ccc3ccccc23)cc(OC)c1 [Compound 6, N-(3,5-Dimethoxyphenyl)-2-hydroxynaphthalene-1-carboxamide]	198 (≈ 64 µg/mL)	792 (≈ 256 µg/mL)		792 (≈ 256 µg/mL)	792 (≈ 256 µg/mL)	> 30	198 (≈ 64 µg/mL)	98.9 (≈ 32 µg/mL)	396 (≈ 128 µg/mL)			792 (≈ 256 µg/mL)	792 (≈ 256 µg/mL)	0.0411	0.0490	0.0388	MIC (MRSA 63718; 24 h): 396 µM (≈ 128 µg/mL); MIC [3]: 396 µM (≈ 128 µg/mL); MIC (MRSA SA 630; 24 h): 396 µM (≈ 128 µg/mL)
O=C(Nc1ccc([N+](=O)[O-])cc1)c1c(O)ccc2ccccc12 [Compound 26, 2-hydroxy-N-(4-nitrophenyl)naphthalene-1-carboxamide]	> 830	830 (≈ 256 µg/mL)	830 (≈ 256 µg/mL)	830 (≈ 256 µg/mL)	830 (≈ 256 µg/mL)			415 (≈ 128 µg/mL)	104 (≈ 32.1 µg/mL)	208 (≈ 64.1 µg/mL)	415 (≈ 128 µg/mL)	415 (≈ 128 µg/mL)	830 (≈ 256 µg/mL)	0.0862	0.0879	0.0984	CC50 [6]: 2.5 ± 0.1 µM
Cc1ccc(C(F)(F)F)cc1NC(=O)c1c(O)ccc2ccccc12 [Compound 22, 2-Hydroxy-N-[2-methyl-5-(trifluoromethyl)phenyl]naphthalene-1-carboxamide]	2.9 (≈ 1 µg/mL)		5.79 (≈ 2 µg/mL)	23.2 (≈ 8.01 µg/mL)	92.6 (≈ 32 µg/mL)	> 30	2.9 (≈ 1 µg/mL)		46.3 (≈ 16 µg/mL)	23.2 (≈ 8.01 µg/mL)	2.9 (≈ 1 µg/mL)		92.6 (≈ 32 µg/mL)	0.3444	0.3440		MIC (VRE 368; 24 h): 46.3 µM (≈ 16 µg/mL); MIC [1]: 46.3 µM (≈ 16 µg/mL); MIC ([4]; ATCC29212, 24 h): 46.3 µM (≈ 16 µg/mL)
Cc1cc(C)cc(NC(=O)c2c(O)ccc3ccccc23)c1 [Compound 13, N-(3,5-Dimethylphenyl)-2-hydroxynaphthalene-1-carboxamide]	54.9 (≈ 16 µg/mL)	879 (≈ 256 µg/mL)	54.9 (≈ 16 µg/mL)	879 (≈ 256 µg/mL)	879 (≈ 256 µg/mL)	> 30	54.9 (≈ 16 µg/mL)	110 (≈ 32 µg/mL)	439 (≈ 128 µg/mL)	220 (≈ 64.1 µg/mL)	54.9 (≈ 16 µg/mL)	879 (≈ 256 µg/mL)	879 (≈ 256 µg/mL)	0.3429	0.3480	0.3367	
COc1cc(NC(=O)c2c(O)ccc3ccccc23)cc(OC)c1OC [Compound 7, 2-Hydroxy-N-(3,4,5-trimethoxyphenyl)naphthalene-1-carboxamide]	838 (≈ 296 µg/mL)	724 (≈ 256 µg/mL)	838 (≈ 296 µg/mL)	838 (≈ 296 µg/mL)	724 (≈ 256 µg/mL)		419 (≈ 148 µg/mL)	838 (≈ 296 µg/mL)		210 (≈ 74.2 µg/mL)	838 (≈ 296 µg/mL)	724 (≈ 256 µg/mL)	724 (≈ 256 µg/mL)	-0.1053	-0.0948	-0.1150	MIC [2]: 210 µM (≈ 74.2 µg/mL)
